Here are results for 18 compounds from US10414760B2, “Cytochrome P450 inhibitors and uses thereof” (ANGION BIOMEDICA CORP., priority 2016, dated 2019).

The first assay deals with T1, CYP26 (Mus musculus, UniProt O55127).
T1 construct: tissue Xenotech; host or cells: liver microsomes of ATRA-treated mice
T1 sequence (O55127 1-497): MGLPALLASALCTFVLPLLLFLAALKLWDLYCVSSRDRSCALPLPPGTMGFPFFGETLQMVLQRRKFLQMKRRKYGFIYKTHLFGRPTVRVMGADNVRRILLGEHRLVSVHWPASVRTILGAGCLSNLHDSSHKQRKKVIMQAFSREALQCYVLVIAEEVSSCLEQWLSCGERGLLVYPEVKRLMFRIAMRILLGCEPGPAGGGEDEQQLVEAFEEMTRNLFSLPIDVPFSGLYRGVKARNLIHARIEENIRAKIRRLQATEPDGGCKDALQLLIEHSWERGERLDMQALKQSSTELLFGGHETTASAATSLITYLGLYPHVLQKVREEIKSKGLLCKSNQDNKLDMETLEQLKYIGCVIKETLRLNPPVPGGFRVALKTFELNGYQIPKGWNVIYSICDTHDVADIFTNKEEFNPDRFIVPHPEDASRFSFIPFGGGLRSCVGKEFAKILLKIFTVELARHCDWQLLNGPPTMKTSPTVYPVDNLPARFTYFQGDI
Description: CYP26 inhibition: substrate depletion assay for ATRA metabolism in mouse microsomes. The class given is biochemical.
Settings: not given
Here is the method:
Serum Testosterone and PSA and Tumor Testosterone Analysis. Tumor tissue obtained from mice will be homogenized in phosphate buffer (pH 7.4, 0.1 M) and homogenates centrifuged at 2000 g for 20 min. Testosterone concentrations in the serum and in the clear tissue homogenate supernatant will be determined with the ELISA kit from R&D Systems (Catalog # KGR010). Serum PSA concentrations will be measured using a PSA ELISA kit with a serum dilution according to the manufacturers instructions. • c. Breast cancer. To test the efficacy of compounds embodied herein against breast cancer, nude mice carrying human breast cancer lines that are estrogen receptor and Aromatase positive will be used. Cells will be grown in vitro and 2 million will be inoculated in Matrigel (50:50 volume ratio of cells to Matrigel). Cells will be distributed by s.c. injection at the right and left flanks or at the orthotopic sitest in 6 to 8 week old athymic nude mice (BALB/c strain) or severe combined immunodeficient mice under anesthesia. Animals will be treated with compound for 4 weeks, at which point animals will be sacrificed and collect blood samples and tumor tissue for the determination of serum and tumor estrogen levels. Tumors will be excised and a portion will be fixed in formalin for subsequent histochemical and immuno-histochemical analysis. The remainder will be snap frozen in liquid nitrogen and stored at −80° C. • 12. CYP26 inhibition activity. A substrate depletion assay for ATRA metabolism in mouse microsomes is used. […] The assay is run in a 100 μL reaction volume and stopped with an equal volume of methanol. […] CYP17 inhibition assay: In vitro assays for CYP17 17α-hydroxylase and C17,20-lyase activity, assays using rat and dog testis microsomes and ELISA kits from commercial vendors for the detection of formed products are employed. Incubation of rat testis microsomes with the substrate progesterone (P4) results, through the CYP17 17α-hydroxylase and C17,20-lyase activities, in a marked production of androstenedione (AD) in a time and enzyme-concentration dependent manner. […] In another control, microsomes isolated from rat livers, which are known to express very little or no CYP17, are shown to be devoid of this activity. Assays are also used that determine the activity of 17α-hydroxylase activity using P4 as a substrate and detecting HOP4 as a product (using dog testis microsomes) and the activity of C17,20-lyase by using HOP4 as a substrate and AD as a product (rat testis microsomes). • 14. CYP19 inhibition assay: For in vitro assays of CYP19 aromatase activity, commercially available CYP19 enzyme preparations (e.g. BD Gentest Supersomes Catalog #456260) and assay kits (e.g. BD Gentest Catalog #459520) are employed according to the manufacturers instructions.
CYP26 inhibition. […] The assay was run in a 100 μL reaction volume and stopped with an equal volume of methanol. […] Other compounds of formula (I) are similarly potent, for example with an IC50 of 1.6 nM.
Usually IC50 stands for the concentration at which inhibition is half-maximal. Low readings indicate inhibition by little substance, high ones a need for much substance. Consider `CCC(C(c1ccc2nc(NC(=O)C3(C(=O)O)CCCCC3)sc2c1)n1ccnc1)N(C)C` (stereo not drawn) [Example 45, 1-((6-(2-(Dimethylamino)-1-(1H-imidazol-1-yl)butyl)benzo[d]thiazol-2-yl)carbamoyl)cyclohexanecarboxylic acid], for which the IC50 was under 1000 nM.
Still for that read-out and setting: the same measure for `CCC(C(c1ccc2nc(NC(=O)C3(C(=O)O)CCCC3)sc2c1)n1ccnc1)N(C)C` (stereo not drawn) [Example 47, 1-((6-(2-(Dimethylamino)-1-(1H-imidazol-1-yl)butyl)benzo[d]thiazol-2-yl)carbamoyl)cyclopentanecarboxylic acid]: under 1000 nM; for `CCC(C(c1ccc2nc(NC(=O)CCC(C)(C)C(=O)O)sc2c1)n1ccnc1)N(C)C` (stereo not drawn) [Example 49, 5-((6-(-2-(Dimethylamino)-1-(1H-imidazol-1-yl)butyl)benzo[d]thiazol-2-yl)amino)-2,2-dimethyl-5-oxopentanoic acid]: under 1000 nM; for `CCC(C(c1ccc2nc(NC(=O)C3CC4CCC3C4)sc2c1)n1ccnc1)N(C)C` (stereo not drawn) [Example 52, N-(6-(-2-(dimethylamino)-1-(1H-imidazol-1-yl)butyl)benzo[d]thiazol-2-yl)bicyclo[2.2.1]heptane-2-carboxamide]: under 1000 nM.
The same measure, in the same setting: next, `CCC(C(c1ccc2nc(Oc3cccc(C(=O)O)c3)sc2c1)n1ccnc1)N(C)C` (stereo not drawn) [Example 54, 3-((6-(2-(Dimethylamino)-1-(1H-imidazol-1-yl)butyl)benzo[d]thiazol-2-yl)oxy)benzoic acid]: under 1000 nM; `CCC(C(c1ccc2nc(-c3cccc(C(=O)O)c3)sc2c1)n1ccnc1)N(C)C` (stereo not drawn) [Example 56, 3-(6-(2-(Dimethylamino)-1-(1H-imidazol-1-yl)butyl)benzo[d]thiazol-2-yl)benzoic acid]: under 1000 nM; `CCC(C(c1ccc2nc(-c3ccc(C(=O)O)cc3)sc2c1)n1ccnc1)N(C)CC` (stereo not drawn) [Example 58, 4-(6-(2-(Ethyl(methyl)amino)-1-(1H-imidazol-1-yl)butyl)benzo[d]thiazol-2-yl)benzoic acid]: under 1000 nM.
Same read-out and setting: next, `CCC(C(c1ccc2nc(-c3cccc(C(=O)O)c3)sc2c1)n1ccnc1)N(C)CC` (stereo not drawn) [Example 60, 3-(6-(2-(Ethyl(methyl)amino)-1-(1H-imidazol-1-yl)butyl)benzo[d]thiazol-2-yl)benzoic acid]: under 1000 nM; `CCC(C(c1ccc2nc(-c3ccc(C(=O)O)c(Cl)c3)sc2c1)n1ccnc1)N(C)C` (stereo not drawn) [Example 62, 2-Chloro-4-(6-(2-(dimethylamino)-1-(1H-imidazol-1-yl)butyl)benzo[d]thiazol-2-yl)benzoic acid]: under 1000 nM; `CCC(C(c1ccc2nc(-c3ccc(Cl)c(C(=O)O)c3)sc2c1)n1ccnc1)N(C)C` (stereo not drawn) [Example 64, 2-Chloro-5-(6-(2-(dimethylamino)-1-(1H-imidazol-1-yl)butyl)benzo[d]thiazol-2-yl)benzoic acid]: under 1000 nM.
As to `CCC(C(c1ccc2nc(-c3ccc(F)c(C(=O)O)c3)sc2c1)n1ccnc1)N(C)C` (stereo not drawn) [Example 66, 5-(6-(2-(Dimethylamino)-1-(1H-imidazol-1-yl)butyl)benzo[d]thiazol-2-yl)-2-fluorobenzoic acid], the IC50 was under 1000 nM.
Same read-out and setting: the same measure for `CCC(C(c1ccc2nc(-c3cc(F)cc(C(=O)O)c3)sc2c1)n1ccnc1)N(C)C` (stereo not drawn) [Example 68, 3-(6-(2-(Dimethylamino)-1-(1H-imidazol-1-yl)butyl)benzo[d]thiazol-2-yl)-5-fluorobenzoicacid]: under 1000 nM; for `CCC(C(c1ccc2nc(-c3cc(C(=O)O)cc(C(F)(F)F)c3)sc2c1)n1ccnc1)N(C)C` (stereo not drawn) [Example 70, 3-(6-(2-(Dimethylamino)-1-(1H-imidazol-1-yl)butyl)benzo[d]thiazol-2-yl)-5-(trifluoromethyl)benzoic acid]: under 1000 nM; for `CCC(C(c1ccc2nc(-c3cccc(-c4nn[nH]n4)c3)sc2c1)n1ccnc1)N(C)C` (stereo not drawn) [Example 71, 1-(2-(3-(2H-Tetrazol-5-yl)phenyl)benzo[d]thiazol-6-yl)-1-(1H-imidazol-1-yl)-N,N-dimethylbutan-2-amine]: under 1000 nM.
On the same count and under the same terms, the same measure for `CCC(C(c1ccc2nc(-c3ccc(-c4nn[nH]n4)cc3)sc2c1)n1ccnc1)N(C)C` (stereo not drawn) [Example 72, 1-(2-(4-(2H-Tetrazol-5-yl)phenyl)benzo[d]thiazol-6-yl)-1-(1H-imidazol-1-yl)-N,N-dimethylbutan-2-amine]: under 1000 nM; for `CCC(CC)C(c1ccc2nc(-c3ccc(Cl)c(C(=O)OC)c3)sc2c1)n1ccnc1` (stereo not drawn) [Example 73, Methyl 2-chloro-5-(6-(2-ethyl-1-(1H-imidazol-1-yl)butyl)benzo[d]thiazol-2-yl)benzoate]: under 1000 nM; for `CCC(CC)C(c1ccc2nc(-c3ccc(Cl)c(C(=O)O)c3)sc2c1)n1ccnc1` (stereo not drawn) [Example 74, 2-Chloro-5-(6-(2-ethyl-1-(1H-imidazol-1-yl)butyl)benzo[d]thiazol-2-yl)benzoic acid]: under 1000 nM.

In a further assay the target is T2, CYP17 (Rattus norvegicus, UniProt P11715).
T2 construct: using rat and dog testis microsomes and ELISA kits from commercial vendors; from tissue; host or cells: rat testis microsomes
T2 sequence (P11715 1-507): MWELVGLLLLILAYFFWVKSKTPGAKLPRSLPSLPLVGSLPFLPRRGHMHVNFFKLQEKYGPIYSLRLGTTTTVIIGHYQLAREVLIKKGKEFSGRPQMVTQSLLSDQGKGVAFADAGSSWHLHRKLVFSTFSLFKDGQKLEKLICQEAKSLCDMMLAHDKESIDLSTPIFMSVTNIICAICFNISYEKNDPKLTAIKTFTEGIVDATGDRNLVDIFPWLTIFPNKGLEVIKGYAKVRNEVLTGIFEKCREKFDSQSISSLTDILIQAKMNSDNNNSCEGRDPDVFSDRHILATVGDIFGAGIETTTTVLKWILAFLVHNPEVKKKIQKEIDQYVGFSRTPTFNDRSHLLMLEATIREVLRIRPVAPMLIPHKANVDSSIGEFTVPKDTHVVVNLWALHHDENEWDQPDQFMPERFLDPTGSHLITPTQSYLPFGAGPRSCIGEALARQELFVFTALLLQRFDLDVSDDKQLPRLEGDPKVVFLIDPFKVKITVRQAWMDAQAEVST
Description: CYP17 inhibition: 17α hydroxylase and C17,20 lyase activity in testis microsomes, ELISA detection. The class given is biochemical. Conditions: rat testis microsomes, 17α hydroxylase and C17,20 lyase activities. As for the experimental part: Serum Testosterone and PSA and Tumor Testosterone Analysis. Tumor tissue obtained from mice will be homogenized in phosphate buffer (pH 7.4, 0.1 M) and homogenates centrifuged at 2000 g for 20 min. Testosterone concentrations in the serum and in the clear tissue homogenate supernatant will be determined with the ELISA kit from R&D Systems (Catalog # KGR010). Serum PSA concentrations will be measured using a PSA ELISA kit with a serum dilution according to the manufacturers instructions. • c. Breast cancer. To test the efficacy of compounds embodied herein against breast cancer, nude mice carrying human breast cancer lines that are estrogen receptor and Aromatase positive will be used. Cells will be grown in vitro and 2 million will be inoculated in Matrigel (50:50 volume ratio of cells to Matrigel). Cells will be distributed by s.c. injection at the right and left flanks or at the orthotopic sitest in 6 to 8 week old athymic nude mice (BALB/c strain) or severe combined immunodeficient mice under anesthesia. Animals will be treated with compound for 4 weeks, at which point animals will be sacrificed and collect blood samples and tumor tissue for the determination of serum and tumor estrogen levels. Tumors will be excised and a portion will be fixed in formalin for subsequent histochemical and immuno-histochemical analysis. The remainder will be snap frozen in liquid nitrogen and stored at −80° C. • 12. CYP26 inhibition activity. […] The assay is run in a 100 μL reaction volume and stopped with an equal volume of methanol. […] CYP17 inhibition assay: In vitro assays for CYP17 17α-hydroxylase and C17,20-lyase activity, assays using rat and dog testis microsomes and ELISA kits from commercial vendors for the detection of formed products are employed. […] Assays are also used that determine the activity of 17α-hydroxylase activity using P4 as a substrate and detecting HOP4 as a product (using dog testis microsomes) and the activity of C17,20-lyase by using HOP4 as a substrate and AD as a product (rat testis microsomes). • 14.
CYP17 inhibition. In vitro assays for CYP17 17α hydroxylase and C17,20 lyase activity using rat and dog testis microsomes and ELISA kits from commercial vendors for the detection of formed products were employed. […] Assays were also used that determine the activity of 17α hydroxylase activity using P4 as a substrate and detecting HOP4 as a product (using dog testis microsomes) and the activity of C17,20 lyase by using HOP4 as a substrate and AD as a product (rat testis microsomes).
(In general: ELISA stands for enzyme-linked immunosorbent assay.)
With `CC(=O)O[C@H]1CC[C@@]2(C)C(=CC[C@@H]3[C@@H]2CC[C@]2(C)C(c4cccnc4)=CC[C@@H]32)C1` [abiraterone acetate, reference compound], the “Inhibition of androstenedione (AD) production from progesterone (P4)” value is recorded as “completely inhibited”.
